Results on 20 molecules are retold here after patent publication US10676471B2, “Cycloalkyl-linked diheterocycle derivatives” (Pfizer Inc., priority 2014, dated 2020).

A word on the IC50: it is the concentration that inhibits the measured activity by half.

In this assay the test system is BT20 Cell. In words: Cancer Cell Lysate Total L-Glutamate Assay. It is filed as cell-based. The conditions noted are these: Homo sapiens, BT-20, 2 h, total L-glutamate in cell lysate, BT20 cells, 2 hour incubation with test compound. In a few lines:
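BT20 and other cancer lines at ~80% confluence were given fresh L-glutamine-containing medium, then treated with serially diluted compound (0.5% DMSO) for 2 hours at 37° C. Washed cells were lysed by freeze-thaw and sonication. Lysate glutamate was measured via glutamate oxidase/HRP/50 μM Amplex Red fluorescence (ex 530-560, em 585 nm); IC50 by four-parameter logistic fit.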

`Cc1ccc(CC(=O)Nc2nnc(C[C@H]3C[C@@H](c4nnc(NC(=O)Cc5ccccn5)s4)C3)s2)nc1` (single isomer, unassigned) [Example 111, 2-(5-methylpyridin-2-yl)-N-{5-[(cis-3-{5-[(pyridin-2-ylacetyl)amino]-1,3,4-thiadiazol-2-yl}cyclobutyl)methyl]-1,3,4-thiadiazol-2-yl}acetamide] displayed an IC50 of 1.2 nM. In the case of `Cc1ccc(CC(=O)Nc2nnc([C@H]3C[C@@H](Cc4nnc(NC(=O)Cc5ccccn5)s4)C3)s2)nc1` (single isomer, unassigned) [Example 112, 2-(5-methylpyridin-2-yl)-N-{5-[cis-3-({5-[(pyridin-2-ylacetyl)amino]-1,3,4-thiadiazol-2-yl}methyl)cyclobutyl]-1,3,4-thiadiazol-2-yl}acetamide] it was 0.2 nM; in that of `CCNc1nnc([C@H]2C[C@H](Cc3ccc(NC(=O)Cc4ccccn4)nn3)C2)s1` (single isomer, unassigned) [Example 113, N-[6-({trans-3-[5-(ethylamino)-1,3,4-thiadiazol-2-yl]cyclobutyl}methyl)pyridazin-3-yl]-2-(pyridin-2-yl)acetamide], 5.6 nM. On to `CC(=O)Nc1ccc(C[C@H]2C[C@@H](c3nnc(NC(=O)Cc4ccccn4)s3)C2)nn1` (single isomer, unassigned) [Example 114, N-[5-(cis-3-{[6-(acetylamino)pyridazin-3-yl]methyl}cyclobutyl)-1,3,4-thiadiazol-2-yl]-2-(pyridin-2-yl)acetamide], for which 6.5 nM corresponded to half-maximal inhibition (IC50). In the case of `CC(=O)Nc1nnc([C@H]2C[C@H](Cc3ccc(NC(=O)Cc4ccccn4)nn3)C2)s1` (single isomer, unassigned) [Example 115, N-[6-({trans-3-[5-(acetylamino)-1,3,4-thiadiazol-2-yl]cyclobutyl}methyl)pyridazin-3-yl]-2-(pyridin-2-yl)acetamide] it was 2 nM. The value for `O=C(Cc1ccccn1)Nc1ccc(C[C@H]2CC[C@@H](c3nnc(NC(=O)c4ccccn4)s3)C2)nn1` (single isomer, unassigned) [Example 116, N-{5-[(cis)-3-({6-[(pyridin-2-ylacetyl)amino]pyridazin-3-yl}methyl)cyclopentyl]-1,3,4-thiadiazol-2-yl}pyridine-2-carboxamide] was 5.9 nM; that for `O=C(Cc1ccccn1)Nc1ccc(C[C@@H]2CC[C@H](c3nnc(NC(=O)c4ccccn4)s3)C2)nn1` (single isomer, unassigned) [Example 117, N-{5-[(cis)-3-({6-[(pyridin-2-ylacetyl)amino]pyridazin-3-yl}methyl)cyclopentyl]-1,3,4-thiadiazol-2-yl}pyridine-2-carboxamide] was 1.4 nM; that for `O=C(Cc1ccccc1)Nc1ccc(C[C@H]2C[C@@H](c3nnc(NC(=O)Cc4ccccn4)s3)C2)nn1` (single isomer, unassigned) [Example 118, 2-phenyl-N-{6-[(cis-3-{5-[(pyridin-2-ylacetyl)amino]-1,3,4-thiadiazol-2-yl}cyclobutyl)methyl]pyridazin-3-yl}acetamide] was 0.2 nM. For the molecule `COCCC(=O)Nc1nnc([C@@H]2CC[C@H](Cc3ccc(NC(=O)Cc4ccccn4)nn3)C2)s1` (single isomer, unassigned) [Example 121, 3-methoxy-N-{5-[(cis)-3-({6-[(pyridin-2-ylacetyl)amino]pyridazin-3-yl}methyl)cyclopentyl]-1,3,4-thiadiazol-2-yl}propanamide], half-maximal inhibition (IC50) was put at 4 nM. In the case of `COCCC(=O)Nc1nnc([C@H]2CC[C@@H](Cc3ccc(NC(=O)Cc4ccccn4)nn3)C2)s1` (single isomer, unassigned) [Example 122, 3-methoxy-N-{5-[(cis)-3-({6-[(pyridin-2-ylacetyl)amino]pyridazin-3-yl}methyl)cyclopentyl]-1,3,4-thiadiazol-2-yl}propanamide] it was 0.4 nM. The value for `O=C(Cc1ccccn1)Nc1ccc([C@H]2C[C@H](Cc3nnc(NC(=O)Cc4ccccn4)s3)C2)nn1` (single isomer, unassigned) [Example 123, 2-(pyridin-2-yl)-N-{5-[(trans-3-{6-[(pyridin-2-ylacetyl)amino]pyridazin-3-yl}cyclobutyl)methyl]-1,3,4-thiadiazol-2-yl}acetamide] was 1.8 nM; that for `O=C(Cc1ccccn1)Nc1ccc([C@H]2C[C@@H](Cc3nnc(NC(=O)Cc4ccccn4)s3)C2)nn1` (single isomer, unassigned) [Example 124, 2-(pyridin-2-yl)-N-{5-[(cis-3-{6-[(pyridin-2-ylacetyl)amino]pyridazin-3-yl}cyclobutyl)methyl]-1,3,4-thiadiazol-2-yl}acetamide] was 4.7 nM.

The molecule `CC(C)C(=O)Nc1ccc([C@H]2C[C@@H](Cc3nnc(NC(=O)Cc4ccccn4)s3)C2)nn1` (single isomer, unassigned) [Example 125, 2-methyl-N-{6-[cis-3-({5-[(pyridin-2-ylacetyl)amino]-1,3,4-thiadiazol-2-yl}methyl)cyclobutyl]pyridazin-3-yl}propanamide] registered an IC50 of 3.1 nM. The value for `Cn1ccc(CC(=O)Nc2nnc([C@H]3CC[C@@H](Cc4ccc(NC(=O)Cc5ccccn5)nn4)C3)s2)n1` (single isomer, unassigned) [Example 126, 2-(1-methyl-1H-pyrazol-3-yl)-N-{5-[(cis)-3-({6-[(pyridin-2-ylacetyl)amino]pyridazin-3-yl}methyl)cyclopentyl]-1,3,4-thiadiazol-2-yl}acetamide] was 0.5 nM; that for `Cn1ccc(CC(=O)Nc2nnc([C@@H]3CC[C@H](Cc4ccc(NC(=O)Cc5ccccn5)nn4)C3)s2)n1` (single isomer, unassigned) [Example 127, 2-(1-methyl-1H-pyrazol-3-yl)-N-{5-[(cis)-3-({6-[(pyridin-2-ylacetyl)amino]pyridazin-3-yl}methyl)cyclopentyl]-1,3,4-thiadiazol-2-yl}acetamide] was 0.7 nM.

Take `O=C(Cc1ccccn1)Nc1ccc(C[C@@H]2CC[C@H](c3nnc(NC(=O)C[C@H]4CCCO4)s3)C2)nn1` (single isomer, unassigned) [Example 130]: half-maximal inhibition (IC50) was put at 1.8 nM. Consider `O=C(Cc1ccccn1)Nc1ccc(C[C@H]2CC[C@@H](c3nnc(NC(=O)C[C@H]4CCCO4)s3)C2)nn1` (single isomer, unassigned) [Example 131], for which the IC50 came out at 3.1 nM.

`O=C(Cc1ccccn1)Nc1nnc(C[C@@H]2CC[C@H](c3nnc(Nc4ccccn4)s3)C2)s1` (single isomer, unassigned) [Example 133, 2-(pyridin-2-yl)-N-[5-({(cis)-3-[5-(pyridin-2-ylamino)-1,3,4-thiadiazol-2-yl]cyclopentyl}methyl)-1,3,4-thiadiazol-2-yl]acetamide]: the IC50 is 1.7 nM. The value for `O=C(Cc1ccccc1)Nc1ccc(C[C@@H]2CC[C@H](c3nnc(NC(=O)Cc4ccccn4)s3)C2)nn1` [Example 80, 2-phenyl-N-(6-{[(1R,3S)-3-{5-[(pyridin-2-ylacetyl)amino]-1,3,4-thiadiazol-2-yl}cyclopentyl]methyl}pyridazin-3-yl)acetamide] was 0.1 nM; that for `CC(C)C(=O)Nc1nnc([C@H]2CC3(C[C@H](c4nnc(NC(=O)C(C)C)s4)C3)C2)s1` (some centres unmarked) [Example 95, N,N′-(spiro[3.3]heptane-2,6-diyldi-1,3,4-thiadiazole-5,2-diyl)bis(2-methylpropanamide)] was 1.4 nM.
